According to patent US20240425523A1, “Compounds for the Degradation of EGFR Kinase” (Beigene Switzerland GMBH, priority 2023, published 2024):
pIC50: −log10 of the molar value.

Columns and labels:
Type in all cases: cell-based
[1] = biological target: p-EGFR Del19/C797S (H1975-clone #23 cells) (Homo sapiens, UniProt P00533); test: Cell p-EGFR inhibition assay, HTRF, H1975-clone#23 (DEL19/C797S) cells; settings: 16 h treatment; for Imax (%): maximum percentage of pEGFR inhibition; for pIC50: pEGFR inhibition
Description: The EGFR over-expressed cells then underwent knockout, in which the EGFR targeting sgRNA was designed to only target the endogenous EGFR copies and preserve the exogenous EGFR copies. Followed by the knockout, the edited H1975 cells were seeded in 96 well plates at the concentration of 1 cell/well, cultured for about 2 weeks to allow single clones formation. The formed clones were screened by DNA sequencing and whole exon sequencing analysis for the desired edition.
(§1) H1975-#23 and BaF3-L858R cells are treated with compounds diluted in 0.1% DMSO cell culture medium on day 2, incubate for 16 h, 37° C., 5% CO2. the final concentration of compounds in all assay is start with 10 uM, 5-fold dilution, total 8 doses were included.
(§2) After 16 h treatment, for H1975-#23 cells, add 50 ul HTRF 1× lysis buffer to each well; for BaF3-L858R cells, add 20 μl 4× lysis buffer to each well; seal the plate and incubate 1 hour at room temperature on a plate shaker; Once the cells are lysed, 16 μL of cell lysate are transferred to a PE 384-well HTRF detection plate; 4 μL of pre-mixed HTRF antibodies are added to each well; Cover the plate with a plate sealer, spin 1000 rpm for 1 min, Incubate overnight at room temperature; Read on BMG PheraStar with HTRF protocol (337 nm-665 nm-620 nm).
(§3) High control=Cell group with added DMSO and without compound, indicating microplate readings without p-EGFR inhibited.
(§4) Imax is the maximum percentage of inhibition.
(§5) The IC50 value of a compound can be obtained by fitting the following equation.
(§6) Wherein, X and Y are known values, and IC50, Hillslope, Top and Bottom are the parameters obtained by fitting with software. […] The experimental data were fitted by calculating and analyzing with Dotmatics data analysis software.

[2] = biological target: T1, EGFR L858R (BaF3-L858R cells) (Homo sapiens, UniProt P00533, L858R); test: Cell degradation of EGFR, HTRF assay, BaF3-L858R cells; settings: 16 h treatment; for DC50: EGFR degradation; for Dmax: maximum percentage of degradation
T1 construct: host or cells: BaF3
Procedure, shortened: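 BaF3-L858R cells treated 16 h at 37° C, 5% CO2 with compound (top 10 uM final, 5-fold, 8 doses, 0.1% DMSO). DC50 from four-parameter fit; Dmax is maximum percent degradation.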

[3] = biological target: T2, EGFR-L858R/C797S (H1975-clone #8 cells) (Homo sapiens, UniProt P00533, C797S/L858R); test: Cell degradation of EGFR, HTRF assay, H1975-clone#8 (L858R/C797S) cells; settings: 16 h treatment; for DC50: EGFR degradation; for Dmax: maximum percentage of degradation
T2 construct: expressed in transfected cells; host or cells: H1975 (endogenous EGFR knocked out, clone #8)

[4] = biological target: T3, p-EGFR L858R (BaF3-L858R cells) (Homo sapiens, UniProt P00533, L858R); test: Cell p-EGFR inhibition assay, HTRF, BaF3-L858R cells; settings: 16 h treatment; for Imax (%): maximum percentage of pEGFR inhibition; for pIC50: pEGFR inhibition
T3 construct: host or cells: BaF3
Description: BaF3-L858R (abbv. L858R) cell were purchased from Kangyuan Bochuang Biotechnology (Beijing) Co., Ltd.
as §1, §2, §3, §4, §5, §6

Row | Compound | Imax (%) [1] [%] | pIC50 [1] | DC50 [2] [nM] | Dmax [2] [%] | DC50 [3] [nM] | Dmax [3] [%] | Imax (%) [4] [%] | pIC50 [4]
1 | COC[C@H]1CN(c2ccc3c(c2)N2C[C@@H]4CC[C@H](COc5c(cnn5C)-c5cc(cc(C)n5)C(=O)/N=C/2N3)C4)CCN1C1CCN(c2ccc(C3CCC(=O)NC3=O)nc2C)CC1 (stereo partly drawn) [Example 65, 3-(5-(4-((R)-4-((7^1R,7^3S,E)-1^1,2^6-dimethyl-3-oxo-5^2,5^3-dihydro-1^1H,5^1H-9-oxa-4-aza-5(2,1)-benzo[d]imidazola-2(2,4)-pyridina-1(4,5)-pyrazola-7(1,3)-cyclopentanacyclononaphane-5^6-yl)-2-(methoxymethyl)piperazin-1-yl)piperidin-1-yl)-6-methylpyridin-2-yl)piperidine-2,6-dione] | 101.5 | 9.52 | 0.94 | 88.7 | 0.87 | 78.6 | 103 | 8.55
2 | COC[C@@H]1CN(c2ccc3c(c2)N2C[C@@H]4CC[C@H](COc5c(cnn5C)-c5cc(cc(C)n5)C(=O)/N=C/2N3)C4)CCN1CC1CN(c2ccc3c(c2)C(=O)N(C2CCC(=O)NC2=O)C3=O)C1 (stereo partly drawn) [Example 69, 5-(3-(((S)-4-((7^1R,7^3S,E)-1^1,2^6-dimethyl-3-oxo-5^2,5^3-dihydro-1^1H,5^1H-9-oxa-4-aza-5(2,1)-benzo[d]imidazola-2(2,4)-pyridina-1(4,5)-pyrazola-7(1,3)-cyclopentanacyclononaphane-5^6-yl)-2-(methoxymethyl)piperazin-1-yl)methyl)azetidin-1-yl)-2-(2,6-dioxopiperidin-3-yl)isoindoline-1,3-dione] | 100.1 | 8.74 | 3.2 | 89.3 | 5.24 | 62.4 | 99.9 | 8.24
3 | COC[C@@H]1CN(c2ccc3c(c2)N2CC4CC[C@H](COc5c(cnn5C)-c5cc(cc(C)n5)C(=O)/N=C/2N3)C4)CCN1C1CCN(c2cc(F)c(C3CCC(=O)NC3=O)nc2C)CC1 (stereo partly drawn) [Example 70, 3-(5-(4-((S)-4-((7^1R,7^3S,E)-1^1,2^6-dimethyl-3-oxo-5^2,5^3-dihydro-1^1H,5^1H-9-oxa-4-aza-5(2,1)-benzo[d]imidazola-2(2,4)-pyridina-1(4,5)-pyrazola-7(1,3)-cyclopentanacyclononaphane-5^6-yl)-2-(methoxymethyl)piperazin-1-yl)piperidin-1-yl)-3-fluoro-6-methylpyridin-2-yl)piperidine-2,6-dione] | 99.2 | 8.85 | 3.78 | 87.7 | 4.11 | 73.5 | 102.1 | 7.96
4 | COC[C@H]1CN(c2ccc3c(c2)N2CC4CC[C@H](COc5c(cnn5C)-c5cc(cc(C)n5)C(=O)/N=C/2N3)C4)CCN1C1CCN(c2cc(F)c(C3CCC(=O)NC3=O)nc2C)CC1 (stereo partly drawn) [Example 71, 3-(5-(4-((R)-4-((7^1R,7^3S,E)-1^1,2^6-dimethyl-3-oxo-5^2,5^3-dihydro-1^1H,5^1H-9-oxa-4-aza-5(2,1)-benzo[d]imidazola-2(2,4)-pyridina-1(4,5)-pyrazola-7(1,3)-cyclopentanacyclononaphane-5^6-yl)-2-(methoxymethyl)piperazin-1-yl)piperidin-1-yl)-3-fluoro-6-methylpyridin-2-yl)piperidine-2,6-dione] | 99.8 | 8.96 | 3.63 | 84.6 | 3.3 | 80.2 | 99.7 | 8.19
5 | Cc1cc2cc(n1)-c1c(C)nn(C)c1OC[C@H]1CCC(C1)CN1/C(=N/C2=O)Nc2ccc(N3CCN(C4CCN(c5ccc(C6CCC(=O)NC6=O)nc5C)CC4)CC3)cc21 (stereo partly drawn) [Example 72, 3-(6-methyl-5-(4-(4-((7^1R,7^3S,E)-1^1,1^3,2^6-trimethyl-3-oxo-5^2,5^3-dihydro-1^1H,5^1H-9-oxa-4-aza-5(2,1)-benzo[d]imidazola-2(2,4)-pyridina-1(4,5)-pyrazola-7(1,3)-cyclopentanacyclononaphane-5^6-yl)piperazin-1-yl)piperidin-1-yl)pyridin-2-yl)piperidine-2,6-dione] | 101.7 | 9.22 | 0.4 | 91.6 | 0.64 | 76.6 | 92.8 | 8.49
6 | COC[C@@H]1CN(c2ccc3c(c2)N2CC4CC[C@H](COc5c(cnn5C)-c5cc(cc(C)n5)C(=O)/N=C/2N3)C4)CCN1C1CCN(c2ccc(C3CCC(=O)NC3=O)nc2C)CC1 (stereo partly drawn) [Example 73, 3-(5-(4-((S)-4-((7^1R,7^3S,E)-1^1,2^6-dimethyl-3-oxo-5^2,5^3-dihydro-1^1H,5^1H-9-oxa-4-aza-5(2,1)-benzo[d]imidazola-2(2,4)-pyridina-1(4,5)-pyrazola-7(1,3)-cyclopentanacyclononaphane-5^6-yl)-2-(methoxymethyl)piperazin-1-yl)piperidin-1-yl)-6-methylpyridin-2-yl)piperidine-2,6-dione] | 101.1 | 9.00 | 2.02 | 87.2 | 2.24 | 78.4 | 93.5 | 7.99
7 | Cc1cc2cc(n1)-c1c(C)nn(C)c1OC[C@H]1CCC(C1)CN1/C(=N/C2=O)Nc2ccc(N3CCN(C4CCN(c5cc(F)c([C@H]6CCC(=O)NC6=O)c(F)c5)CC4)CC3)cc21 [Example 74, (R)-3-(2,6-difluoro-4-(4-(4-((7^1R,7^3S,E)-1^1,1^3,2^6-trimethyl-3-oxo-5^2,5^3-dihydro-1^1H,5^1H-9-oxa-4-aza-5(2,1)-benzo[d]imidazola-2(2,4)-pyridina-1(4,5)-pyrazola-7(1,3)-cyclopentanacyclononaphane-5^6-yl)piperazin-1-yl)piperidin-1-yl)phenyl)piperidine-2,6-dione] | 101.2 | 8.77 | 0.99 | 90.4 | 1 | 86.2 | 93.3 | 8.49
8 | Cc1cc2cc(n1)-c1cnn(C)c1OC[C@H]1CCC(C1)CN1/C(=N/C2=O)Nc2ccc(N3CCN(C4CCN(c5cc(F)c([C@H]6CCC(=O)NC6=O)c(F)c5)CC4)[C@@H](CO)C3)cc21 [Example 75, (R)-3-(4-(4-((R)-4-((7^1R,7^3S,E)-1^1,2^6-dimethyl-3-oxo-5^2,5^3-dihydro-1^1H,5^1H-9-oxa-4-aza-5(2,1)-benzo[d]imidazola-2(2,4)-pyridina-1(4,5)-pyrazola-7(1,3)-cyclopentanacyclononaphane-5^6-yl)-2-(hydroxymethyl)piperazin-1-yl)piperidin-1-yl)-2,6-difluorophenyl)piperidine-2,6-dione] | 101.1 | 9.22 | 1.6 | 82.7 | 0.97 | 61.3 | 92.6 | 8.10
9 | Cc1cc2cc(n1)-c1cnn(C)c1OC[C@H]1CCC(C1)CN1/C(=N/C2=O)Nc2ccc(N3CCN([C@H]4CCN(c5ccc(C6CCC(=O)NC6=O)nc5C)C[C@@H]4F)CC3)cc21 (stereo partly drawn) [Example 76, 3-(5-((3S,4S)-4-(4-((7^1R,7^3S,E)-1^1,2^6-dimethyl-3-oxo-5^2,5^3-dihydro-1^1H,5^1H-9-oxa-4-aza-5(2,1)-benzo[d]imidazola-2(2,4)-pyridina-1(4,5)-pyrazola-7(1,3)-cyclopentanacyclononaphane-5^6-yl)piperazin-1-yl)-3-fluoropiperidin-1-yl)-6-methylpyridin-2-yl)piperidine-2,6-dione] | 101 | 9.15 | 3.23 | 84.8 | 3.87 | 79.4 | 94.9 | 8.11
